For assay [1], the target named is HCV NS3/4A protease genotype 1b (Hepatitis C virus genotype 1b, UniProt P26663). Briefly: HCV NS3/4A protease time-resolved fluorescence (TRF) assay, Ki against genotype 1b. In kind it is biochemical. Conditions: IC50 [gt-1b] (nM), NS3/4A genotype 1b, enzyme 0.2 nM. The essentials:
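Enzyme 0.2 nM 1b / 0.4 nM A156T / 0.025 nM 3a; 30 min preinc. w/ cpd; 25 nM TRF peptide; 2.5 h RT; ex 340/em 615 time-delayed; 4-param IC50 → Ki = IC50/(1+[S]/KM).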

The test system of another assay is HCV genotype 1b replicon. Briefly: HCV replicon assay, genotype 1b replicon EC50. Conditions: Hepatitis C virus, genotype 1b replicon, read-out: EC50 [gt-1b]. The format is cell-based, Hepatitis C virus. The gist of the method: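 Compound dilution series incubated 24-48 h, G418 absent, with HCV genotype 1b replicon cell lines kept under G418 selection beforehand. Luciferase signal or replicon RNA, by ^32P hybridization/protection or TaqMan normalized to cyclophilin A, was measured after washing and lysis. Four-parameter fitting against DMSO control gave EC50.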
On the technique in general: In antiviral work, replicon cells carry a viral genome segment that copies itself.

Where two headings read alike, the source gives them in different places.

Usually IC50 stands for the concentration at which inhibition is half-maximal. As a reminder, the EC50 is the midpoint of the concentration-response curve.

The compound `Cc1nc2cc(F)ccc2c2c1O[C@]1(CC2)C[C@H]2C(=O)N[C@]3(C(=O)NS(=O)(=O)C4(C)CC4)C[C@H]3/C=C\CCCCC[C@H](NC(=O)OCC(C)C)C(=O)N2C1` [Example 340, 2-methylpropyl [(2R,6S,12Z,13aS,14aR,16aS)-8′-fluoro-5′-methyl-14a-{[(1-methylcyclopropyl)sulfonyl]carbamoyl}-5,16-dioxo-1,1′,2′,5,6,7,8,9,10,11,13a,14,14a,15,16,16a-hexadecahydrospiro[cyclopropa[e]pyrrolo[1,2-a][1,4]diazacyclopentadecine-2,3′-pyrano[2,3-c]quinolin]-6-yl]carbamate] showed a half-inhibitory concentration (IC50) in assay [1] of 0.03 nM. Besides, the EC50 with HCV genotype 1b replicon came out at 3.23 nM.

On to `COc1cccc(N[C@H]2CCCCC/C=C\[C@@H]3C[C@@]3(C(=O)NS(=O)(=O)C3(C)CC3)NC(=O)[C@@H]3C[C@]4(CCc5c(c(C)nc6ccccc56)O4)CN3C2=O)c1` [Example 341, (2R,6S,12Z,13aS,14aR,16aS)-6-[(3-methoxyphenyl)amino]-5′-methyl-N-[(1-methylcyclopropyl)sulfonyl]-5,16-dioxo-1,1′,2′,6,7,8,9,10,11,13a,14,15,16,16a-tetradecahydrospiro[cyclopropa[e]pyrrolo[1,2-a][1,4]diazacyclopentadecine-2,3′-pyrano[2,3-c]quinoline]-14a(5R)-carboxamide], for which half-maximal inhibition in assay [1] (IC50) was put at 0.172 nM. Also, the 50% effective concentration (EC50) in the assay with HCV genotype 1b replicon came to 1.04 nM.

Compound `Cc1cccc(N[C@H]2CCCCC/C=C\[C@@H]3C[C@@]3(C(=O)NS(=O)(=O)C3(C)CC3)NC(=O)[C@@H]3C[C@]4(CCc5c(c(C)nc6ccccc56)O4)CN3C2=O)n1` [Example 343, (2R,6S,12Z,13aS,14aR,16aS)-5′-methyl-N-[(1-methylcyclopropyl)sulfonyl]-6-[(6-methylpyridin-2-yl)amino]-5,16-dioxo-1,1′,2′,6,7,8,9,10,11,13a,14,15,16,16a-tetradecahydrospiro[cyclopropa[e]pyrrolo[1,2-a][1,4]diazacyclopentadecine-2,3′-pyrano[2,3-c]quinoline]-14a(5H)-carboxamide] registered an IC50 in assay [1] of 0.05 nM. Besides, the EC50 in the assay with HCV genotype 1b replicon stood at 5.86 nM.

`Cc1nc2ccccc2c2c1O[C@]1(CC2)C[C@H]2C(=O)N[C@]3(C(=O)NS(=O)(=O)C4(C)CC4)C[C@H]3/C=C\CCCCC[C@H](N)C(=O)N2C1` [Example 344, (2R,6S,12Z,13aS,14aR,16aS)-6-amino-5′-methyl-N-[(1-methylcyclopropyl)sulfonyl]-5,16-dioxo-1,1′,2′,6,7,8,9,10,11,13a,14,15,16,16a-tetradecahydrospiro[cyclopropa[e]pyrrolo[1,2-a][1,4]diazacyclopentadecine-2,3′-pyrano[2,3-c]quinoline]-14a(5H)-carboxamide] had an IC50 in assay [1] of 0.685 nM. Moreover, the EC50 in the assay on HCV genotype 1b replicon was 662 nM.

Consider `Cc1nc2ccccc2c2c1O[C@]1(CC2)C[C@H]2C(=O)N[C@]3(C(=O)NS(=O)(=O)C4(C)CC4)C[C@H]3/C=C\CCCCC[C@H](Nc3cccc(F)c3)C(=O)N2C1` [Example 345, (2R,6S,12Z,13aS,14aR,16aS)-6-[(3-fluorophenyl)amino]-5′-methyl-N-[(1-methylcyclopropyl)sulfonyl]-5,16-dioxo-1,1′,2′,6,7,8,9,10,11,13a,14,15,16,16a-tetradecahydrospiro[cyclopropa[e]pyrrolo[1,2-a][1,4]diazacyclopentadecine-2,3′-pyrano[2,3-c]quinoline]-14a(5H)-carboxamide], for which the concentration for half-maximal inhibition (IC50) in assay [1] amounted to 0.428 nM. Also, the 50% effective concentration (EC50) in the assay on HCV genotype 1b replicon amounted to 6.59 nM.

`COc1ccc2nc(C(F)(F)F)c3c(c2c1)CC[C@]1(C[C@H]2C(=O)N[C@]4(C(=O)NS(=O)(=O)C5(C)CC5)C[C@H]4/C=C\CCCCC[C@H](NC(=O)OC(C)(C)C(F)(F)F)C(=O)N2C1)O3` [Example 348, 1,1,1-trifluoro-2-methylpropan-2-yl [(2R,6S,12Z,13aS,14aR,16aS)-9′-methoxy-14a-{[(1-methylcyclopropyl)sulfonyl]carbamoyl}-5,16-dioxo-5′-(trifluoromethyl)-1,1′,2′,5,6,7,8,9,10,11,13a,14,14a,15,16,16a-hexadecahydrospiro[cyclopropa[e]pyrrolo[1,2-a][1,4]diazacyclopentadecine-2,3′-pyrano[2,3-c]quinolin]-6-yl]carbamate]: the half-maximal inhibitory concentration (IC50) in assay [1] (K+ salt) stood at 0.046 nM. Besides, the EC50 with HCV genotype 1b replicon (K+ salt) was determined as 9.23 nM.

As for `COc1ccc2nc(C)c3c(c2c1)CC[C@]1(C[C@H]2C(=O)N[C@]4(C(=O)NS(=O)(=O)C5(C)CC5)C[C@H]4/C=C\CCCCC[C@H](NC(=O)OCC4(C(F)(F)F)CC4)C(=O)N2C1)O3` [Example 349, [1-(trifluoromethyl)cyclopropyl]methyl [(2R,6S,12Z,13aS,14aR,16aS)-9′-methoxy-5′-methyl-14a-{[(1-methylcyclopropyl)sulfonyl]carbamoyl}-5,16-dioxo-1,1′,2′,5,6,7,8,9,10,11,13a,14,14a,15,16,16a-hexadecahydrospiro[cyclopropa[e]pyrrolo[1,2-a][1,4]diazacyclopentadecine-2,3′-pyrano[2,3-c]quinolin]-6-yl]carbamate], in assay [1] (K+ salt), the IC50 was 0.012 nM. Also, the concentration for a half-maximal effect (EC50) in the assay on HCV genotype 1b replicon (K+ salt) amounted to 4.55 nM.

`Cc1ccnc(N[C@H]2CCCCC/C=C\[C@@H]3C[C@@]3(C(=O)NS(=O)(=O)C3(C)CC3)NC(=O)[C@@H]3C[C@]4(CCc5c(c(C)nc6ccccc56)O4)CN3C2=O)c1` [Example 350, (2R,6S,12Z,13aS,14aR,16aS)-5′-methyl-N-[(1-methylcyclopropyl)sulfonyl]-6-[(4-methylpyridin-2-yl)amino]-5,16-dioxo-1,1′,2′,6,7,8,9,10,11,13a,14,15,16,16a-tetradecahydrospiro[cyclopropa[e]pyrrolo[1,2-a][1,4]diazacyclopentadecine-2,3′-pyrano[2,3-c]quinoline]-14a(5H)-carboxamide]: inhibition in assay [1] was half-maximal at 0.035 nM (IC50). Besides, in the assay with HCV genotype 1b replicon, the EC50 turned out to be 2.84 nM.

As to `COc1ccc2nc(C(F)(F)F)c3c(c2c1)CC[C@]1(C[C@H]2C(=O)N[C@]4(C(=O)NS(=O)(=O)C5(C)CC5)C[C@H]4/C=C\CCCCC[C@H](NC(=O)O[C@@H](C)C(C)C)C(=O)N2C1)O3` [Example 351, (2S)-3-methylbutan-2-yl [(2R,6S,12Z,13aS,14aR,16aS)-9′-methoxy-14a-{[(1-methylcyclopropyl)sulfonyl]carbamoyl}-5,16-dioxo-5′-(trifluoromethyl)-1,1′,2′,5,6,7,8,9,10,11,13a,14,14a,15,16,16a-hexadecahydrospiro[cyclopropa[e]pyrrolo[1,2-a][1,4]diazacyclopentadecine-2,3′-pyrano[2,3-c]quinolin]-6-yl]carbamate], the IC50 in assay [1] (K+ salt) amounted to 0.029 nM. For the same compound, the 50% effective concentration (EC50) with HCV genotype 1b replicon (K+ salt) is 2.19 nM.

As for `COc1ccc2nc(C(C)C)c3c(c2c1)[C@H](F)C[C@]1(C[C@H]2C(=O)N[C@]4(C(=O)NS(=O)(=O)C5(C)CC5)C[C@H]4/C=C\CCCCC[C@H](NC(=O)OC(C)(C)C(F)(F)F)C(=O)N2C1)O3` [Example 352, 1,1,1-trifluoro-2-methylpropan-2-yl [(1′R,2S,6S,12Z,13aS,14aR,16aS)-1′-fluoro-9′-methoxy-14a-{[(1-methylcyclopropyl)sulfonyl]carbamoyl}-5,16-dioxo-5′-(propan-2-yl)-1,1′,2′,5,6,7,8,9,10,11,13a,14,14a,15,16,16a-hexadecahydrospiro[cyclopropa[e]pyrrolo[1,2-a][1,4]diazacyclopentadecine-2,3′-pyrano[2,3-c]quinolin]-6-yl]carbamate], the IC50 in assay [1] (K+ salt) is 0.042 nM. Moreover, the EC50 in the assay with HCV genotype 1b replicon (K+ salt) stood at 1.45 nM.

As for `Cc1nc2ccccc2c2c1O[C@]1(CC2)C[C@H]2C(=O)N[C@]3(C(=O)NS(=O)(=O)C4(C)CC4)C[C@H]3/C=C\CCCCC[C@H](Nc3ccccn3)C(=O)N2C1` [Example 353, (2R,6S,12Z,13aS,14aR,16aS)-5′-methyl-N-[(1-methylcyclopropyl)sulfonyl]-5,16-dioxo-6-(pyridin-2-ylamino)-1,1′,2′,6,7,8,9,10,11,13a,14,15,16,16a-tetradecahydrospiro[cyclopropa[e]pyrrolo[1,2-a][1,4]diazacyclopentadecine-2,3′-pyrano[2,3-c]quinoline]-14a(5R)-carboxamide], in assay [1], half-maximal inhibition (IC50) required 0.111 nM. In addition, the EC50 with HCV genotype 1b replicon worked out at 39.5 nM.

For `COc1ccc2nc(C)c3c(c2c1)[C@@H](F)C[C@]1(C[C@H]2C(=O)N[C@]4(C(=O)NS(=O)(=O)C5(C)CC5)C[C@H]4/C=C\CCCCC[C@H](NC(=O)OC(C)(C)C)C(=O)N2C1)O3` [Example 354, tert-butyl [(1′S,2S,6S,12Z,13aS,14aR,16aS)-1′-fluoro-9′-methoxy-5′-methyl-14a-{[(1-methylcyclopropyl)sulfonyl]carbamoyl}-5,16-dioxo-1,1′,2′,5,6,7,8,9,10,11,13a,14,14a,15,16,16a-hexadecahydrospiro[cyclopropa[e]pyrrolo[1,2-a][1,4]diazacyclopentadecine-2,3′-pyrano[2,3-c]quinolin]-6-yl]carbamate], in assay [1], the concentration for half-maximal inhibition (IC50) worked out at 0.169 nM. In addition, in the assay with HCV genotype 1b replicon, the EC50 is 103 nM.

Take `COc1ccc2nc(C)c3c(c2c1)[C@H](F)C[C@]1(C[C@H]2C(=O)N[C@]4(C(=O)NS(=O)(=O)C5(C)CC5)C[C@H]4/C=C\CCCCC[C@H](NC(=O)OC(C)(C)C(F)(F)F)C(=O)N2C1)O3` [Example 355, 1,1,1-trifluoro-2-methylpropan-2-yl [(1′R,2S,6S,12Z,13aS,14aR,16aS)-1′-fluoro-9′-methoxy-5′-methyl-14a-{[(1-methylcyclopropyl)sulfonyl]carbamoyl}-5,16-dioxo-1,1′,2′,5,6,7,8,9,10,11,13a,14,14a,15,16,16a-hexadecahydrospiro[cyclopropa[e]pyrrolo[1,2-a][1,4]diazacyclopentadecine-2,3′-pyrano[2,3-c]quinolin]-6-yl]carbamate]: the IC50 in assay [1] (K+ salt) came out at 0.02 nM. Also, the 50% effective concentration (EC50) in the assay with HCV genotype 1b replicon (K+ salt) worked out at 3.77 nM.
